Positions count from the first letter of the chain named.
Columns and labels:
GlyT2 F428A mutant = target: T1, GlyT2 F428A mutant (Homo sapiens, UniProt Q9Y345, F428A); assay: Glycine transport currents, two electrode voltage clamp, oocytes expressing GlyT2 F428A; type: cell-based; conditions: GlyT2 F428A; for % Max. inhibition: mean ± SEM
T1 construct: expressed in transfected cells; host or cells: Xenopus laevis oocytes (cRNA injection)
T1 sequence (Q9Y345 1-797 F428A): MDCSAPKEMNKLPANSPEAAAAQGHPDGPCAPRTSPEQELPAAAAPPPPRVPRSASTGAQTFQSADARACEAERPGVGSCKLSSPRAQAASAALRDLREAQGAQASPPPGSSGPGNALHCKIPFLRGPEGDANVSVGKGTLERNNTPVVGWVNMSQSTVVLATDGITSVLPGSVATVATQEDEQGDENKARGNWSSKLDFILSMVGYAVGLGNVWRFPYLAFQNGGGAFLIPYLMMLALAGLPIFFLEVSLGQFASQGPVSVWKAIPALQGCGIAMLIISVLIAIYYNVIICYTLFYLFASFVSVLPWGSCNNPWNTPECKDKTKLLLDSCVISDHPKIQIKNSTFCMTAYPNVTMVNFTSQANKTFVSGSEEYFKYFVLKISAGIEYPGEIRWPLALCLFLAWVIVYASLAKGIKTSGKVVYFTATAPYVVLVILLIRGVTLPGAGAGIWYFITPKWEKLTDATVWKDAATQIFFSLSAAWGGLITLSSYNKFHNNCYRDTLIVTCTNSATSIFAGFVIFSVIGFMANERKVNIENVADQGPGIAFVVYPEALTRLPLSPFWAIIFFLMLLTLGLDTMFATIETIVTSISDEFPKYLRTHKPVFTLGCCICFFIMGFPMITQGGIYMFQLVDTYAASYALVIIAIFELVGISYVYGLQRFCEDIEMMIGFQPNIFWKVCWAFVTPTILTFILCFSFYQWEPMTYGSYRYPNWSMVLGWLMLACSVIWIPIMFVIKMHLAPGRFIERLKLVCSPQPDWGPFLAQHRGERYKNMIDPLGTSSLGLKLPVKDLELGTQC
Protocol: (§1) Glycine was first applied to establish maximal transport current.
(§2) Compounds were tested for inhibition of glycine transport on Xenopus laevis oocytes expressing mutant GlyT1 and GlyT2 transporters. n values are in brackets, with measurements taken from at least 2 batches of oocytes.

GlyT1 WT = test system: GlyT1 WT; parameters: method as in earlier work; conditions: previously published; cited from earlier work
GlyT2 WT = target: T2, GlyT2 WT (Homo sapiens, UniProt Q9Y345); parameters: expressed in transfected cells; host or cells: Xenopus laevis oocytes (cRNA injection); conditions: WT GlyT2, previously published, cited from earlier work; for IC50: mean (95% CI); for GlyT2 % max. inhibition: mean ± SEM
T2 sequence (Q9Y345 1-797): T1 sequence (Q9Y345 1-797 F428A) with A428F

GlyT2 Y550L mutant = target: T3, GlyT2 Y550L mutant (Homo sapiens, UniProt Q9Y345, Y550L); assay: Glycine transport currents, two electrode voltage clamp, oocytes expressing GlyT2 Y550L; type: cell-based; conditions: GlyT2 Y550L; for IC50: greater than maximum concentration applied (footnote a); for % Max. inhibition: mean ± SEM
T3 construct: expressed in transfected cells; host or cells: Xenopus laevis oocytes (cRNA injection)
T3 sequence (Q9Y345 1-797 Y550L): T1 sequence (Q9Y345 1-797 F428A) with A428F, Y550L
Protocol: as §1, §2

GlyT2 P561S mutant = target: T4, GlyT2 P561S mutant (Homo sapiens, UniProt Q9Y345, P561S); assay: Glycine transport currents, two electrode voltage clamp, oocytes expressing GlyT2 P561S; type: cell-based; conditions: GlyT2 P561S
T4 construct: expressed in transfected cells; host or cells: Xenopus laevis oocytes (cRNA injection)
T4 sequence (Q9Y345 1-797 P561S): T1 sequence (Q9Y345 1-797 F428A) with A428F, P561S
Protocol: as §1, §2

GlyT2 W563L mutant = target: T5, GlyT2 W563L mutant (Homo sapiens, UniProt Q9Y345, W563L); assay: Glycine transport currents, two electrode voltage clamp, oocytes expressing GlyT2 W563L; type: cell-based; conditions: GlyT2 W563L
T5 construct: expressed in transfected cells; host or cells: Xenopus laevis oocytes (cRNA injection)
T5 sequence (Q9Y345 1-797 W563L): T1 sequence (Q9Y345 1-797 F428A) with A428F, W563L
Protocol: as §1, §2

% Max. inhibition (GlyT2 Y550L mutant) | IC50 (GlyT2 P561S mutant; mean (95% CI)) | % Max. inhibition (GlyT2 P561S mutant; mean ± SEM) | IC50 (GlyT2 W563L mutant; mean (95% CI)) | % Max. inhibition (GlyT2 W563L mutant; mean ± SEM) | SMILES | IC50 (GlyT2 F428A mutant) | % Max. inhibition (% inhibition at the highest concentration of inhibitor used) (GlyT2 F428A mutant; footnote b) | IC50 (GlyT1 WT) | IC50 (GlyT2 WT) | GlyT2 % max. inhibition (GlyT2 WT) | IC50 (GlyT2 F428A mutant; mean (95% CI)) | % Max. inhibition (GlyT2 F428A mutant) | IC50 (GlyT2 Y550L mutant)
– | – | – | – | – | CCCCC=CCCCCCCCC(=O)NCC(=O)O [C14 ω5 Glycine] | > 30000 nM | 33.4 ± 3.0^b (p=0.0007) % | > 10000 nM | 9200 nM | 100 ± 7.2% | – | – | –
– | – | – | – | – | CCCCCCCCCCC=CCCCC(=O)NCC(=O)O [C16 ω11 Glycine] | – | – | > 10000 nM | 3400 nM | 97.9 ± 2.3% | 4810 nM | 103 ± 7.7 (p=0.6075) % | –
– | – | – | – | – | CCCCCCCC=CCCCCCCCCC(=O)NCC(=O)O [C18 ω8 Glycine] | > 10000 nM | – | > 10000 nM | 320 nM | 61.3 ± 1.7% | – | 13.2 ± 2.7 (p=0.0001) % | –
– | – | – | – | – | CCCCCCCCCC=CCCCCCCC(=O)NCC(=O)O [C18 ω10 Glycine] | – | – | > 10000 nM | 340 nM | 52.4 ± 2.2% | 776 nM | 25.3 ± 5.3 (p=0.0092) % | –
41.1 ± 6.2 (p=0.0115) % | – | – | – | – | CCCCCCCC/C=C\CCCCCCCC(=O)N[C@@H](CC(C)C)C(=O)O [oleoyl l-Leucine] | – | – | > 10000 nM | – | 72.2 ± 3.8% | – | – | –
11.2 ± 1.6 (p=0.0001) % | 580 nM | 80.3 ± 7.3 (p=0.7241) % | 661 nM | 62.3 ± 5.3 (p=0.3662) % | CCCCCCCC/C=C\CCCCCCCC(=O)N[C@@H](CO)C(=O)O [oleoyl l-Serine] | – | – | > 3000 nM | – | 73.1 ± 5.1% | – | – | > 3000 nM

SMILES | % Max. inhibition (GlyT2 Y550L mutant) | IC50 (GlyT2 P561S mutant; mean (95% CI)) | % Max. inhibition (GlyT2 P561S mutant; mean ± SEM) | IC50 (GlyT2 W563L mutant; mean (95% CI)) | % Max. inhibition (GlyT2 W563L mutant; mean ± SEM) | IC50 (GlyT2 F428A mutant) | % Max. inhibition (% inhibition at the highest concentration of inhibitor used) (GlyT2 F428A mutant; footnote b) | IC50 (GlyT1 WT) | IC50 (GlyT2 WT) | GlyT2 % max. inhibition (GlyT2 WT) | IC50 (GlyT2 F428A mutant; mean (95% CI)) | % Max. inhibition (GlyT2 F428A mutant) | IC50 (GlyT2 Y550L mutant)
CCCCCCCC/C=C\CCCCCCCC(=O)N[C@@H](CCCNC(=N)N)C(=O)O [oleoyl l-Arginine] | 9.3 ± 1.4 (p=0.0001) % | – | – | – | – | – | – | > 3000 nM | 47.9 nM | 87.2 ± 3.7% | – | – | > 3000 nM

Reference: paper PMC6797481, “Identification of an allosteric binding site on the human glycine transporter, GlyT2, for bioactive lipid analgesics” (eLife, 2019)
